Source: PMC3914206

Key:
Type in all cases: binding
panel of 442 kinases [1] = molecular target: T1, panel of 442 kinases (Homo sapiens, UniProt P07947); settings: kinase YES; compound concentration 10 µM
T1 construct: purchased KINOMEscan
Source text: (§1) We assessed the selectivity of members of this scaffold using the KINOMEscan methodology across a near comprehensive panel of 442 kinases [[18,27]].

panel of 442 kinases [2] = molecular target: T2, panel of 442 kinases (Homo sapiens, UniProt Q13237); settings: Compound Concentration 10 µM
T2 construct: purchased KINOMEscan
T2 sequence (Q13237 1-762): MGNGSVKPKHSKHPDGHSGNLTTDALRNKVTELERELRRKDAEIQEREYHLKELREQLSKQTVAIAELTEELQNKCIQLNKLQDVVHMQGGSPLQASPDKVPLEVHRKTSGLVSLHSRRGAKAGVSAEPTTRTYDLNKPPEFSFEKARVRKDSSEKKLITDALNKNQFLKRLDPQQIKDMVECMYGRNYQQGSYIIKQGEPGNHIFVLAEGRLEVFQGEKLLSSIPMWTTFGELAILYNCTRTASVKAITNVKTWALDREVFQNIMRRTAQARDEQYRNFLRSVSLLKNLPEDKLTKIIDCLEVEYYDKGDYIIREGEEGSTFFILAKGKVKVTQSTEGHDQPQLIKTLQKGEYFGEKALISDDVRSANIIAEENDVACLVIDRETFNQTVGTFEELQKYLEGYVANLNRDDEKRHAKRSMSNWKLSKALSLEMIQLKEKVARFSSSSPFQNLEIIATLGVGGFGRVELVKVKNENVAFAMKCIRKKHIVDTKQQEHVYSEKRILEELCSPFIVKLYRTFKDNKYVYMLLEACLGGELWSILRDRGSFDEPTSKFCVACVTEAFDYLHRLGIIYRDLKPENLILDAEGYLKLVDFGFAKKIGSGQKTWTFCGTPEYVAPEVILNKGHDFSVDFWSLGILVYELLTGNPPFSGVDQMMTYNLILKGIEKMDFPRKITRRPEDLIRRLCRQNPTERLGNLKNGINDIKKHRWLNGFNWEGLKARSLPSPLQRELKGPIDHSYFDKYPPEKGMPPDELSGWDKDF
Source text: as §1

panel of 442 kinases [3] = molecular target: T3, panel of 442 kinases (Homo sapiens, UniProt P42336); settings: Compound Concentration 10 µM
T3 construct: purchased KINOMEscan
Source text: as §1

T1 sequence (P07947 whole entry): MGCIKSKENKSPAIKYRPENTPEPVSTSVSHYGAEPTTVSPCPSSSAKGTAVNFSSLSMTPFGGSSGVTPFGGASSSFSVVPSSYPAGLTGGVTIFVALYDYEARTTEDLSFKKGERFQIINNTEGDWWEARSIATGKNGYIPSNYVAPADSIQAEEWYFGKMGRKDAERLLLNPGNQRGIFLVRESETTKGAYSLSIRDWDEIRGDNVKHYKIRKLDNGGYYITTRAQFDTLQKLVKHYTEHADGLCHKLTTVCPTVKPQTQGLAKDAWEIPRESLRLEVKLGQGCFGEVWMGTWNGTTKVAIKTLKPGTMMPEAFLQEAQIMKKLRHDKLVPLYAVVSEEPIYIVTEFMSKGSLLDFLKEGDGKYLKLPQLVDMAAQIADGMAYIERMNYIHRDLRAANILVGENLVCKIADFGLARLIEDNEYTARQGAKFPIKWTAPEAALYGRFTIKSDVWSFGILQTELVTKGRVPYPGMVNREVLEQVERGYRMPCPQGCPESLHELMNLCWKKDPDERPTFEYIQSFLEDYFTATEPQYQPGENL
T3 sequence (P42336 whole entry): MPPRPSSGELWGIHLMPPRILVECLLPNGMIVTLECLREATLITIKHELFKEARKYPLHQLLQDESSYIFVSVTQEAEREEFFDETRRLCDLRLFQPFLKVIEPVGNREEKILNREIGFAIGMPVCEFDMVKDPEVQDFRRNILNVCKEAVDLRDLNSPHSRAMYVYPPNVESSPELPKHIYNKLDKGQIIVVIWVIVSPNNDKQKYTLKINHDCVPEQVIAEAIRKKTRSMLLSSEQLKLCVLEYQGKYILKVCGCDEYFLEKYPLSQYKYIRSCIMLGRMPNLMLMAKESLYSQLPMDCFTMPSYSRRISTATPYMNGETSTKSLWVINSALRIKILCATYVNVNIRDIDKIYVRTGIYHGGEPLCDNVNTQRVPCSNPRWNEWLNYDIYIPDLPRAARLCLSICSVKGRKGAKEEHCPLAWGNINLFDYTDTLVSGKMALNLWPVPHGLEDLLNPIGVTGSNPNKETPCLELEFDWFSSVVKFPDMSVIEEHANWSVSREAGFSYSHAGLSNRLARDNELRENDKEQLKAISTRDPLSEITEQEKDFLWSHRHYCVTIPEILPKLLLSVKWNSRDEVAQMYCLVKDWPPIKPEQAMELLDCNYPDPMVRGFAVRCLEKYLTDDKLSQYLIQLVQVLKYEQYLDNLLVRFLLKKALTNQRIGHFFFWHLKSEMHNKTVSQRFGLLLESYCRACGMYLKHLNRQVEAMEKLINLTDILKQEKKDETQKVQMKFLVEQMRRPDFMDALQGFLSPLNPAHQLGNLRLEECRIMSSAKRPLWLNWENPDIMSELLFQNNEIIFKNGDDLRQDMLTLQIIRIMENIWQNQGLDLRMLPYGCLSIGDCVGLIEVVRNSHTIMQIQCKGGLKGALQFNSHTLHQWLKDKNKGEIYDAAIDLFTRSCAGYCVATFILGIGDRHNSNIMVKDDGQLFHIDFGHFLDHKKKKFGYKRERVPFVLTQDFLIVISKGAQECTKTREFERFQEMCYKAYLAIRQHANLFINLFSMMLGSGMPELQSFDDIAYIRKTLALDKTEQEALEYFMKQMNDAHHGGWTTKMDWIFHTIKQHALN

Structure (SMILES)	% Ctrl, YES (panel of 442 kinases [1]) [% Ctrl]	KINOMEscan: PRKG2 (panel of 442 kinases [2])	KINOMEscan: PIK3CA (panel of 442 kinases [3])
COc1cc(C(=O)N2CCC(N3CCN(C)CC3)CC2)ccc1Nc1ncc2c(n1)N1CCc3cccc(c31)C(=O)N2C [Compound 24]	100	98	
CCOc1cc(C(=O)N2CCC(N3CCN(C)CC3)CC2)ccc1Nc1ncc2c(n1)N(C1CCCC1)c1ccccc1C(=O)N2C [Compound 26]	100	100	100
COc1cc(C(=O)N2CCC(N3CCN(C)CC3)CC2)ccc1Nc1ncc2c(n1)N(C1CCCC1)c1ccccc1C(=O)N2C [Compound 25, 11-cyclopentyl-2-((2-methoxy-4-(4-(4-methylpiperazin-1-yl)piperidine-1-carbonyl)phenyl)amino)-5-methyl-5H-benzo[e]pyrimido[5,4-b][1,4]diazepin-6(11H)-one]	89	98	100
COc1cc(C(=O)N2CCC(N3CCN(C)CC3)CC2)ccc1Nc1ncc2c(n1)N(C)c1ccccc1C(=O)N2C [15 (LRRK2-IN-1)]	100	74	74
